Data on 22 molecules can be found in ChEMBL document CHEMBL5625232, “Development of selective class I protein arginine methyltransferase inhibitors through fragment-based drug design approach” (Eur J Med Chem, 2023).

In brackets after ≈: the same amount, converted by molar mass. Activity calls are given as the source filed them. The rule behind the calls is not given here. Bounds are passed on as bounds.

In general, IC50 refers to the midpoint of a concentration-inhibition curve. Usually inhibition stands for the percentage by which the read-out fell short of the control. Broadly, the logD is lipophilicity at a set pH, counting ionised and neutral species. Broadly, the solubility is the dissolved amount per volume that the medium holds. The low end stands for a poorly soluble substance, the high end for a readily soluble substance.

For data set [1], the target named is T1, Protein arginine N-methyltransferase 1 (Homo sapiens, UniProt Q99873). In words: Displacement of 3H-SAM from PRMT1 (unknown origin) using biotinylated-histone H4 peptide as substrate incubated for 45 mins by SPA assay. (Loss of bound radioactivity is the signal in a displacement assay; it reports binding, not function.)
Target sequence in this assay (Q99873 whole entry): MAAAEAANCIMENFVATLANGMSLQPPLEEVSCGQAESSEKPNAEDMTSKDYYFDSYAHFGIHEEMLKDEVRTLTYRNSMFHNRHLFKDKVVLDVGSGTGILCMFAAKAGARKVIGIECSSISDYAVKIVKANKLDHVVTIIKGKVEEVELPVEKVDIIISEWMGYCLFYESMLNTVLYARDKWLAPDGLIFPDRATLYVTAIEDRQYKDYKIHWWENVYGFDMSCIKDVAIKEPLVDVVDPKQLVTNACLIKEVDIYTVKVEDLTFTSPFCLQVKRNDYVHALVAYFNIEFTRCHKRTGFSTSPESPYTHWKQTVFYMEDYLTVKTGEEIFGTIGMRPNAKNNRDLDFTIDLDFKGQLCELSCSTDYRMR
Data set [2] addresses T2, Histone-lysine N-methyltransferase SUV39H1 (Homo sapiens) (UniProt O43463).
T2 sequence (whole entry): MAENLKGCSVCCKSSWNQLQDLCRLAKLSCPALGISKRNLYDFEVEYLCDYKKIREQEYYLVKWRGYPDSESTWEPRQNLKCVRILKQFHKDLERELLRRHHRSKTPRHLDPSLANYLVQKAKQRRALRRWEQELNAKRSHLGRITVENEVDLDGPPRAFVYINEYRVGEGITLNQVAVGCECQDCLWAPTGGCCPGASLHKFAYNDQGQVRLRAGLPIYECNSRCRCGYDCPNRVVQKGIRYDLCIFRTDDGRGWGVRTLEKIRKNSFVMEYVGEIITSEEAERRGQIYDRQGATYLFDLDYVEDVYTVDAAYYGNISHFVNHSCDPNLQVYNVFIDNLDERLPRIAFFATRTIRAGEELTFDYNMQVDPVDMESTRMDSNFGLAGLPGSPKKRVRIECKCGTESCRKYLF
Nature of the data set: Displacement of 3H-SAM from SUV39H1 (unknown origin) using biotinylated-histone H3 peptide as substrate at 10 uM incubated for 45 mins by SPA assay relative to control.

Data set [3] has as its target T3, Histone-lysine N-methyltransferase SMYD3 (Homo sapiens) (UniProt Q9H7B4).
T3 sequence (whole entry): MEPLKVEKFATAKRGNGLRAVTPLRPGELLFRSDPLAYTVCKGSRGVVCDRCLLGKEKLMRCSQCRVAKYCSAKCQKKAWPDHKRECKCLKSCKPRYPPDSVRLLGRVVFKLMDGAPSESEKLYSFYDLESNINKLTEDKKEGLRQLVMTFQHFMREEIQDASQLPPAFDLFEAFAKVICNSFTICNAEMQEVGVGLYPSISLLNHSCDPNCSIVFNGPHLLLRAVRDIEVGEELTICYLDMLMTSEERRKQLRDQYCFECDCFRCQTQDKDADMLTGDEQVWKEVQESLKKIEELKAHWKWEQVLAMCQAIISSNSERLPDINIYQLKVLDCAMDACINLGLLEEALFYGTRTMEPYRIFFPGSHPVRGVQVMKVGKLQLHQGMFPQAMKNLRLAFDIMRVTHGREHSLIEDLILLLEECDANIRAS
Nature of the data set: Displacement of 3H-SAM from SMYD3 (unknown origin) using biotinylated-MAP3K2 as substrate at 10 uM incubated for 45 mins by SPA assay relative to control.

The target in data set [4] is T4, Histone-lysine N-methyltransferase SUV39H1 (Homo sapiens, UniProt O43463).
T4 sequence (O43463 whole entry): T2 sequence (whole entry)
Nature of the data set: Displacement of 3H-SAM from SUV39H1 (unknown origin) using biotinylated-histone H3 peptide as substrate incubated for 45 mins by SPA assay.

Data set [5] concerns the target T5, Histone-lysine N-methyltransferase SMYD3 (Homo sapiens, UniProt Q9H7B4).
T5 sequence (Q9H7B4 whole entry): T3 sequence (whole entry)
Nature of the data set: Displacement of 3H-SAM from SMYD3 (unknown origin) using biotinylated-MAP3K2 as substrate incubated for 45 mins by SPA assay.

For data set [6], the target named is T1, Protein arginine N-methyltransferase 1. In words: Displacement of 3H-SAM from PRMT1 (unknown origin) using biotinylated-histone H4 peptide as substrate at 30 uM incubated for 45 mins by SPA assay relative to control.
Target sequence in this assay (Q99873 whole entry, looked up): as the sequence (Q99873 whole entry) above
Data set [7] addresses T2, Histone-lysine N-methyltransferase SUV39H1 (Homo sapiens). In words: Displacement of 3H-SAM from SUV39H1 (unknown origin) using biotinylated-histone H3 peptide as substrate at 30 uM incubated for 45 mins by SPA assay relative to control.
For data set [8], the target named is T3, Histone-lysine N-methyltransferase SMYD3 (Homo sapiens). Nature of the data set: Displacement of 3H-SAM from SMYD3 (unknown origin) using biotinylated-MAP3K2 as substrate at 30 uM incubated for 45 mins by SPA assay relative to control.
Data set [9] deals with Histone-lysine N-methyltransferase, H3 lysine-79 specific (Homo sapiens) (UniProt Q8TEK3). Nature of the data set: Displacement of 3H-SAM from DOT1L (unknown origin) at 30 uM incubated for 1 hr in presence of substrate by SPA assay relative to control.
Chain of Histone-lysine N-methyltransferase, H3 lysine-79 specific (Homo sapiens) (Q8TEK3 whole entry, looked up): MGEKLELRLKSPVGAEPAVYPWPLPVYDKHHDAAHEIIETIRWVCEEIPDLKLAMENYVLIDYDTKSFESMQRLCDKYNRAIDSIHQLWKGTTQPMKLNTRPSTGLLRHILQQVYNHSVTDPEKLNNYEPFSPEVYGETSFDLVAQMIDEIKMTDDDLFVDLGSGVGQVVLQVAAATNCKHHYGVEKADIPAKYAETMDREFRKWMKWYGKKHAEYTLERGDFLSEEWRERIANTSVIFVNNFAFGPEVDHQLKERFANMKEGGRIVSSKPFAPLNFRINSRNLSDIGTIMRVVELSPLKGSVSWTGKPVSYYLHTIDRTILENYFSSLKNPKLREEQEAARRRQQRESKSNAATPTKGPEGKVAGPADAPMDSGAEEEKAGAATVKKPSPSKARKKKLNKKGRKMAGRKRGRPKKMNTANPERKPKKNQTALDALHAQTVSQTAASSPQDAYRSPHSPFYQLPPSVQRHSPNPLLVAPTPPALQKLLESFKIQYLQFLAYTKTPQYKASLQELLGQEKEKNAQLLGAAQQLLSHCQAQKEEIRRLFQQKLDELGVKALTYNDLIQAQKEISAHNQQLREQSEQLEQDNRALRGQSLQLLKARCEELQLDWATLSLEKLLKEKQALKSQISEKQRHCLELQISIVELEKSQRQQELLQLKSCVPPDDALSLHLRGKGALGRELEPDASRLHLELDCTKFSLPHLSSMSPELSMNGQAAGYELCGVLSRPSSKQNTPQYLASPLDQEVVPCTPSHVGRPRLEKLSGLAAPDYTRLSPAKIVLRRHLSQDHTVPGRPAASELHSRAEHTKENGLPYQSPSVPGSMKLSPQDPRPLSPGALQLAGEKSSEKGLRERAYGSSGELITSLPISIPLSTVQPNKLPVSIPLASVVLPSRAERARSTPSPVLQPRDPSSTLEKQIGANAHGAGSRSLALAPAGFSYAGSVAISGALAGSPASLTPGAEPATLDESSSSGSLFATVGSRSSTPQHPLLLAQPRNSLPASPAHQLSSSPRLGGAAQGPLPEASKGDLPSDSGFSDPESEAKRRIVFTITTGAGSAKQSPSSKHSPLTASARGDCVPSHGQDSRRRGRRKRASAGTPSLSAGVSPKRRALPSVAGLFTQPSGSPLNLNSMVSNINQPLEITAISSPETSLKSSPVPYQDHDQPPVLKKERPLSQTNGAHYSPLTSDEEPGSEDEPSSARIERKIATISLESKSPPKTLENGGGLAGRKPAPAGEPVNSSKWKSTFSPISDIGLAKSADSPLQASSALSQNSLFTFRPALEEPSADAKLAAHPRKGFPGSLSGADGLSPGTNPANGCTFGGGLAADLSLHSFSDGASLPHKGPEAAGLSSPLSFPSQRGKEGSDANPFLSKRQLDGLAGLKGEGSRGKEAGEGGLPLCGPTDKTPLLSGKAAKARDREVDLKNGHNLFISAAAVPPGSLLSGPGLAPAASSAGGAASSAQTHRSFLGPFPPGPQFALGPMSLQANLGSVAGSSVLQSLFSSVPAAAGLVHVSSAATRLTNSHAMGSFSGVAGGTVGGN
Data set [10] deals with T1, Protein arginine N-methyltransferase 1. In words: Displacement of 3H-SAM from PRMT1 (unknown origin) using biotinylated-histone H4 peptide as substrate upto 200 uM incubated for 45 mins by SPA assay.
Target sequence in this assay (Q99873 whole entry, looked up): as the sequence (Q99873 whole entry) above
Data set [11] concerns the target T2, Histone-lysine N-methyltransferase SUV39H1 (Homo sapiens). In words: Displacement of 3H-SAM from SUV39H1 (unknown origin) using biotinylated-histone H3 peptide as substrate upto 200 uM incubated for 45 mins by SPA assay.
Data set [12] has as its target T3, Histone-lysine N-methyltransferase SMYD3 (Homo sapiens). In words: Displacement of 3H-SAM from SMYD3 (unknown origin) using biotinylated-MAP3K2 as substrate upto 200 uM incubated for 45 mins by SPA assay.
For data set [13], the target named is T6, Histone-arginine methyltransferase CARM1 (Homo sapiens, UniProt Q86X55).
T6 sequence (Q86X55 whole entry): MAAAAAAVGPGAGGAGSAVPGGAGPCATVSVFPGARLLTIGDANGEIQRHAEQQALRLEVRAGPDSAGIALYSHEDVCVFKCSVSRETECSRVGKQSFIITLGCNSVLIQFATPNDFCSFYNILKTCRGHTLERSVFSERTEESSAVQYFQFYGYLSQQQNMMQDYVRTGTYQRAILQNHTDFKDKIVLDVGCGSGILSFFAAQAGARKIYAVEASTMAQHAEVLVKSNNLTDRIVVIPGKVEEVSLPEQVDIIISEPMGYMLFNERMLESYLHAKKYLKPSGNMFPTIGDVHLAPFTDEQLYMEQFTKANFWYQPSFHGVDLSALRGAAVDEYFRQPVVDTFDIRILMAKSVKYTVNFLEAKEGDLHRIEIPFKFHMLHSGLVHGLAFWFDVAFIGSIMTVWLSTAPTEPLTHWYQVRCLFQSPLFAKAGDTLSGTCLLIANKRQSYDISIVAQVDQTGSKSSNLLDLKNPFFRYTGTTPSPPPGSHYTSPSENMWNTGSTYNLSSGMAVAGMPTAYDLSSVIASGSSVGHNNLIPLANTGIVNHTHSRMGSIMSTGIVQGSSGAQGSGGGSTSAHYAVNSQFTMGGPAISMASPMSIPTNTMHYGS
Nature of the data set: Displacement of 3H-SAM from human PRMT4 in presence of substrate by SPA assay.

Data set [14] has as its target T7, Protein arginine N-methyltransferase 8 (Homo sapiens, UniProt Q9NR22). In words: Displacement of 3H-SAM from human PRMT8 in presence of substrate by SPA assay.
The target of data set [15] is Protein arginine N-methyltransferase 6 (Homo sapiens, UniProt Q96LA8). Nature of the data set: Inhibition of PRMT6 (unknown origin).
Chain of Protein arginine N-methyltransferase 6 (Q96LA8 whole entry): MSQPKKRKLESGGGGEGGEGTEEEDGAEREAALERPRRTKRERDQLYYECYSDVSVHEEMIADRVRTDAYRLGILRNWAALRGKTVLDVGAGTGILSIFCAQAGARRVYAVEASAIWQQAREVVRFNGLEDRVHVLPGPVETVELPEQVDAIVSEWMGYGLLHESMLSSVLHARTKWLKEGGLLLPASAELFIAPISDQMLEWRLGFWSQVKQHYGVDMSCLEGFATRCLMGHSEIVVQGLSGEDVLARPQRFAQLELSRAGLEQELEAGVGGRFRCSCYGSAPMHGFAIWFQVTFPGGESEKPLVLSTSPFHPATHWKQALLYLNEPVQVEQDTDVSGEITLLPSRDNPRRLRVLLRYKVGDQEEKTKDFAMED
For data set [16], the target named is T7, Protein arginine N-methyltransferase 8. In words: Inhibition of PRMT8 (unknown origin).
Data set [17] concerns the target T1, Protein arginine N-methyltransferase 1. Nature of the data set: Inhibition of PRMT1 (unknown origin).
Target sequence in this assay (Q99873 whole entry): as the sequence (Q99873 whole entry) above
The target of data set [18] is T6, Histone-arginine methyltransferase CARM1. In words: Inhibition of PRMT4 (unknown origin).
A short description of data set [19]: Lipophilicity, log D of compound in 1-octanol at pH 7.4 incubated for 4 hrs by HPLC-UV analysis. It counts as physicochemical. The conditions noted are these: 1-octanol/aqueous phase.
The nature of data set [20]: Aqueous solubility of compound at pH 7.4 incubated for 24 hrs by HPLC-UV spectroscopy. It counts as physicochemical. The settings on record: aqueous medium.

T7 sequence (Q9NR22 whole entry): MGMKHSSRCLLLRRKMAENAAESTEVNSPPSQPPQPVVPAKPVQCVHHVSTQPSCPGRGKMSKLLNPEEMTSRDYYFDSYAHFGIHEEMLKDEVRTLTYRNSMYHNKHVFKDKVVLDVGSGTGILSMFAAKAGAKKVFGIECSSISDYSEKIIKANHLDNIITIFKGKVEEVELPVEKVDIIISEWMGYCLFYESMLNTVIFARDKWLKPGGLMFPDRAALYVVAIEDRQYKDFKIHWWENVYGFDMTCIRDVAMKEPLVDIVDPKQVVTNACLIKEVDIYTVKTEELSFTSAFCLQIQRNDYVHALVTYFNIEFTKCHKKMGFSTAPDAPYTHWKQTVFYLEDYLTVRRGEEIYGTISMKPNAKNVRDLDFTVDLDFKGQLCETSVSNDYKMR

In data set [1], `CNCCN1CCC(NC(=O)c2ccc3c(Nc4ccc(CNC)cc4)ncnc3c2)C1` (configuration not stated) displayed an IC50 of 2 µM. Further, the inhibition in data set [2] and in [3] was less than 25% in each case.

Consider `NC1CCN(c2ncnc3cc(C(=O)NCCN4CCNCC4)ccc23)CC1`, for which the IC50 in [1] was greater than 100 µM; in [4], greater than 200 µM; in data set [5], greater than 200 µM.

For the molecule `NCc1ccc(Nc2ncnc3cc(C(=O)N4CCC(N)C4)ccc23)cc1` (configuration not stated), the IC50 in data set [1] is greater than 100 µM; in [4], greater than 100 µM; in data set [5], greater than 200 µM.

`CN1CCN(CCNC(=O)c2ccc3c(Nc4ccc(CN)cc4)ncnc3c2)CC1`: the inhibition was less than 25% in data set [6], less than 25% in data set [7], less than 25% in data set [8] and 17% in data set [9].

Regarding `NC1CCN(c2ncnc3cc(C(=O)NC4CCCC4)ccc23)CC1`, the inhibition result in [10], in [11] and in data set [12] was “inactive” in each case.

Consider `CC(C)Oc1ccc(-c2c[nH]cc2CN(C)CCN)cc1`, for which the IC50 in [13] turned out to be 45 µM; in [14], 9 µM.

In the case of `CN1CCC(NC(=O)c2ccc3c(Nc4ccc(CN)cc4)ncnc3c2)C1` (configuration not stated), in [10], the inhibition entry is “inactive”. In addition, the inhibition in [2] and in data set [3] was less than 25% throughout.

In data set [4], `CN(C)CCN1CCC(NC(=O)c2ccc3c(Nc4ccc(CN)cc4)ncnc3c2)C1` (configuration not stated) had a 50% inhibitory concentration (IC50) of 16 µM. For the same molecule, the inhibition in data set [8] was less than 25%; in data set [9] it was 10%.

On to `NC1CCN(c2ncnc3cc(C(=O)NC4CCNC4)ccc23)CC1` (configuration not stated), for which the IC50 amounted to 16 µM in data set [4] and 60 µM in data set [5].

Molecule `CNCCNC(=O)c1ccc2c(Nc3ccc(CN)cc3)ncnc2c1` returned an IC50 in data set [4] of 23 µM. The inhibition in data set [8] is less than 25%; in data set [9], 15%.

`NCc1ccc(Nc2ncnc3cc(C(=O)NCCN4CCCC4)ccc23)cc1` displayed an IC50 in data set [4] of 14 µM. Besides, the inhibition in data set [6] is less than 25%; in data set [8], less than 25%; in [9], 9%.

On to `CNCCNCc1c[nH]nc1-c1ccc(O[C@H]2C[C@H](OCCC3CCCCC3)C2)cc1`, for which the IC50 in data set [15] came out at 0.01 µM; in data set [16], 0.223 µM; in [17], 0.119 µM.

For the molecule `NCc1ccc(NC(=O)c2ccc3c(N4CCC(N)CC4)ncnc3c2)cc1`, the IC50 amounted to 7 µM in [4] and 8 µM in data set [5].

Regarding `CNCCNc1cccc(-n2nc(C(F)(F)F)cc2C(=O)NCc2ccccc2OC)c1`, in data set [18], half-maximal inhibition (IC50) was put at 0.005 µM.

Turning to `COCCc1ccc(OCC(O)CNC(C)C)cc1` (configuration not stated) [METOPROLOL], the logD at 4 h in data set [19] is -0.28.

Take `NCc1ccc(Nc2ncnc3cc(C(=O)NC4CCNCC4)ccc23)cc1`: the IC50 in data set [1] was greater than 200 µM; in data set [4], greater than 200 µM; in [5], greater than 100 µM.

On to `NC1CCN(c2ncnc3cc(C(=O)NC4CCNCC4)ccc23)CC1`, for which the IC50 in [1], in data set [4] and in data set [5] was greater than 200 µM in each case.

Regarding `NCc1ccc(Nc2ncnc3cc(C(=O)NCCN4CCNCC4)ccc23)cc1`, the IC50 in data set [4] amounted to 35 µM; in data set [5] it was 74 µM.

As to `NCc1ccc(Nc2ncnc3cc(C(=O)NC4CCNC4)ccc23)cc1` (configuration not stated), the IC50 worked out at 47 µM in data set [4] and 63 µM in data set [5].

Take `CCCSc1ccc2nc(NC(=O)OC)[nH]c2c1` [ALBENDAZOLE]: the concentration in solution in data set [20] (solubility at 24 h) came to 2.2 µg/mL (≈ 8.29 µM).

For `CN(C)CCNC(=O)c1ccc2c(Nc3ccc(CN)cc3)ncnc2c1`, the IC50 in data set [4] is 22 µM. For the same molecule, the inhibition in data set [6] is less than 25%; in data set [8] it was less than 25%; in data set [9] it was 5%.

With `CNCCCNC(=O)c1ccc2c(Nc3ccc(CN)cc3)ncnc2c1`, the inhibition in data set [2] and in data set [3] was less than 25% in each case.
